Bounds are passed on as bounds.

In general, IC50 refers to the point on the concentration scale where inhibition reaches its midpoint.

For this experiment, the target named is ROCK2 (human) (UniProt O75116). In words: Inhibition of ROCK2 Kinase Activity.
Chain of ROCK2 (human) (O75116 whole entry, looked up): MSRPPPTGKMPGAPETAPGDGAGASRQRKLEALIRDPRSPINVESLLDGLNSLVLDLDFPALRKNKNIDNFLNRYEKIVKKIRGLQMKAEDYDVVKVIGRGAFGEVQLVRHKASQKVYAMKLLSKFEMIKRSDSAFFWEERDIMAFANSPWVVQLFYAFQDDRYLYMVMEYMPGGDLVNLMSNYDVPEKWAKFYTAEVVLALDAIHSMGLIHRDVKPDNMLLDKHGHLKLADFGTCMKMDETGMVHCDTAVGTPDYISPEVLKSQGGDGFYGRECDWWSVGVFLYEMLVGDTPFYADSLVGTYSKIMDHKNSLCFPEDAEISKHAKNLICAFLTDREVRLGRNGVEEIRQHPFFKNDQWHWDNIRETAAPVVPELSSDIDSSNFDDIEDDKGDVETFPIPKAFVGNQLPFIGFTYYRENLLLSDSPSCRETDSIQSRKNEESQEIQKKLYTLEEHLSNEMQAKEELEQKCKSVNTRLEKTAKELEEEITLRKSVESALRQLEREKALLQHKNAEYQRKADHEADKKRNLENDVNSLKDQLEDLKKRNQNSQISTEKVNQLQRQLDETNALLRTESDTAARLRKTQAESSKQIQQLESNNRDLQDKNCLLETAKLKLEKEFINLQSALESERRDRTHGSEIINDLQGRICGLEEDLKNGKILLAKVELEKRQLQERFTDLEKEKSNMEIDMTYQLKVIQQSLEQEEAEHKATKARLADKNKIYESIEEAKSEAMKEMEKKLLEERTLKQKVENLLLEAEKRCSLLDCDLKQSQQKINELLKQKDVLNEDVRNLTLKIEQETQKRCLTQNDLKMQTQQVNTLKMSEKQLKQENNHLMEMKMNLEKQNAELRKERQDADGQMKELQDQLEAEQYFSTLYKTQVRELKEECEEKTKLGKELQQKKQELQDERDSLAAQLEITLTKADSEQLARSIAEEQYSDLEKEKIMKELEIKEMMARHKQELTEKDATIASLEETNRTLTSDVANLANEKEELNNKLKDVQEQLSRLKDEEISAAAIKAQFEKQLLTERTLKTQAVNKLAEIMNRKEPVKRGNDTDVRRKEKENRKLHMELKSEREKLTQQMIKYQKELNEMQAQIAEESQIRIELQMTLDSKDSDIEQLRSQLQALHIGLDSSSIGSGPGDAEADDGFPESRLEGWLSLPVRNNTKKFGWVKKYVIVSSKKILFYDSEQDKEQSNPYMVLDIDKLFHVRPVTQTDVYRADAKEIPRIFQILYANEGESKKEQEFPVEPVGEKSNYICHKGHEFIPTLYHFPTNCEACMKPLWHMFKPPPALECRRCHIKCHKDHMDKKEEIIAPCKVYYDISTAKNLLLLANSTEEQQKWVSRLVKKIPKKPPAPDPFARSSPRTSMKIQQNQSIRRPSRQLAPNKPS
`COc1cccc(C(=O)NCc2nc(-c3ccncc3)no2)c1` returned an IC50 greater than 5 µM.

As for `O=C(NCc1nc(-c2c[nH]c3ncccc23)n[nH]1)c1cc(Cl)ccn1`, the IC50 was greater than 5 µM.

With `O=C(NCc1nc(-c2c[nH]c3ncccc23)n[nH]1)c1ccc(Cl)cc1[N+](=O)[O-]`, the IC50 is greater than 5 µM.

`O=C(NCc1nc(-c2ccncc2)n[nH]1)c1ccc(O)cc1O` had an IC50 of no more than 5 µM.

`CCCCc1ccc(C(=O)NCc2nc(-c3ccncc3)n[nH]2)cc1`: the concentration for half-maximal inhibition (IC50) is greater than 5 µM.

The compound `O=C(Cc1ccc(Br)cc1)NCc1nc(-c2ccncc2)n[nH]1` came in with a concentration for half-maximal inhibition (IC50) greater than 5 µM.

Regarding `Cc1ccc(O)c(C(=O)NCc2nc(-c3c[nH]c4ncccc34)n[nH]2)c1`, the half-maximal inhibitory concentration (IC50) was greater than 5 µM.

`O=C(NCc1nc(-c2ccncc2)n[nH]1)c1ccc2cc(O)ccc2c1` had a half-inhibitory concentration (IC50) of no more than 5 µM.

Compound `CC(C)(C)c1ccc(C(=O)NCc2nc(-c3c[nH]c4ncccc34)n[nH]2)cc1` showed an IC50 greater than 5 µM.

For `CC(=O)Oc1ccccc1C(=O)NCc1nc(-c2c[nH]c3ncccc23)n[nH]1`, the IC50 is greater than 5 µM.

Compound `Cc1ccc(C(=O)NCc2nc(-c3c[nH]c4ncccc34)n[nH]2)cc1` yielded an IC50 greater than 5 µM.

`CC(C)(C)OC(=O)N1CCCC1C(=O)NCc1nc(-c2c[nH]c3ncccc23)n[nH]1` (centres undefined) registered an IC50 greater than 5 µM.

Take `O=C(NCc1nc(-c2c[nH]c3ncccc23)n[nH]1)c1cc([N+](=O)[O-])ccc1Cl`: the IC50 is greater than 5 µM.

The compound `Cc1cccc(C(=O)NCc2nc(-c3c[nH]c4ncccc34)n[nH]2)c1` showed an IC50 greater than 5 µM.

`CC(C)(C)c1ccc(C(=O)NCc2nc(-c3ccncc3)n[nH]2)cc1` registered a 50% inhibitory concentration (IC50) greater than 5 µM.

`O=C(C=Cc1ccc2c(c1)OCO2)NCc1nc(-c2c[nH]c3ncccc23)n[nH]1` displayed a half-maximal inhibitory concentration (IC50) greater than 5 µM.

As for `CC(=O)c1cccc(C(=O)NCc2nc(-c3ccncc3)n[nH]2)c1`, the half-maximal inhibitory concentration (IC50) is greater than 5 µM.

`Cc1cc(C(=O)NCc2nc(-c3c[nH]c4ncccc34)n[nH]2)ccc1Br` had a 50% inhibitory concentration (IC50) greater than 5 µM.

Compound `COc1cc(OC)c(C(=O)NCc2nc(-c3c[nH]c4ncccc34)n[nH]2)c(OC)c1` displayed an IC50 greater than 5 µM.

`Cc1ccc(SCC(=O)NCc2nc(-c3ccncc3)n[nH]2)cc1` came in with a half-inhibitory concentration (IC50) greater than 5 µM.

In the case of `O=C(NCc1nc(-c2ccncc2)n[nH]1)c1ccccc1Cc1ccccc1`, the IC50 was greater than 5 µM.

Compound `Cc1ccc(O)c(C(=O)NCc2nc(-c3ccncc3)n[nH]2)c1` gave a concentration for half-maximal inhibition (IC50) greater than 5 µM.

Regarding `O=C(NCc1nc(-c2c[nH]c3ncccc23)n[nH]1)c1ccccc1`, the IC50 was greater than 5 µM.

In the case of `O=C(NCc1nc(-c2c[nH]c3ncccc23)n[nH]1)c1cccc2ccccc12`, the half-inhibitory concentration (IC50) is greater than 5 µM.

In the case of `Cc1ccc(F)cc1C(=O)NCc1nc(-c2ccncc2)n[nH]1`, the half-inhibitory concentration (IC50) is greater than 5 µM.

In turn, `O=C(NCc1nc(-c2ccncc2)n[nH]1)C1CCc2ccccc2C1` (centres undefined) showed an IC50 greater than 5 µM.

`COC1=C(O)C=CC(C=CC(=O)NCc2nc(-c3c[nH]c4ncccc34)n[nH]2)=CC1` displayed a concentration for half-maximal inhibition (IC50) greater than 5 µM.

For the compound `CCC(C)C(NC(=O)OC(C)(C)C)C(=O)NCc1nc(-c2ccncc2)n[nH]1` (centres undefined), the IC50 was greater than 5 µM.

Compound `CC(=O)Oc1cccc(C(=O)NCc2nc(-c3ccncc3)n[nH]2)c1` yielded an IC50 greater than 5 µM.

Regarding `CC(C)(C)OC(=O)N1CCNC(C(=O)NCc2nc(-c3c[nH]c4ncccc34)n[nH]2)C1` (centres undefined), the 50% inhibitory concentration (IC50) is greater than 5 µM.

In the case of `O=C(NCc1nc(-c2ccncc2)n[nH]1)c1cc2cc(Cl)ccc2o1`, the IC50 was greater than 5 µM.

Compound `Cc1ccc(F)cc1C(=O)NCc1nc(-c2c[nH]c3ncccc23)n[nH]1` came in with a half-inhibitory concentration (IC50) greater than 5 µM.

As for `O=C(NCc1nc(-c2ccncc2)n[nH]1)c1c2ccccc2cc2ccccc12`, the 50% inhibitory concentration (IC50) is greater than 5 µM.

`O=C(NCc1nc(-c2c[nH]c3ncccc23)n[nH]1)c1ccc(Br)cc1` yielded an IC50 greater than 5 µM.

`CC(C)c1ccc(C(=O)NCc2nc(-c3c[nH]c4ncccc34)n[nH]2)cc1` registered an IC50 greater than 5 µM.

`COc1ccccc1CC(=O)NCc1nc(-c2c[nH]c3ncccc23)n[nH]1` displayed a half-inhibitory concentration (IC50) greater than 5 µM.

As for `O=C(NCc1nc(-c2c[nH]c3ncccc23)n[nH]1)c1ccccc1O`, the IC50 was greater than 5 µM.

As for `O=C(NCc1ncc(-c2ccncc2)s1)c1cccs1`, the IC50 was greater than 5 µM.

In turn, `O=C(NCc1nc(-c2c[nH]c3ncccc23)n[nH]1)c1ccc2cc(O)ccc2c1` returned a half-maximal inhibitory concentration (IC50) greater than 5 µM.

`O=C(NCc1nc(-c2ccncc2)n[nH]1)c1cc(O)ccc1[N+](=O)[O-]`: the IC50 was greater than 5 µM.

Regarding `CS(=O)(=O)Nc1cccc(C(=O)NCc2nc(-c3ccncc3)n[nH]2)c1`, the IC50 was greater than 5 µM.

The compound `COc1cc(C(=O)NCc2nc(-c3ccncc3)n[nH]2)cc(Cl)n1` came in with a concentration for half-maximal inhibition (IC50) greater than 5 µM.

As for `COc1ccc(C(=O)NCc2nc(-c3ccncc3)n[nH]2)c(O)c1`, the 50% inhibitory concentration (IC50) is no more than 5 µM.

On to `O=C(NCc1nc(-c2c[nH]c3ncccc23)n[nH]1)c1ccc([N+](=O)[O-])cc1Cl`, for which the IC50 was greater than 5 µM.

For the compound `COc1cccc(C(=O)NCc2nc(-c3ccncc3)n[nH]2)c1`, the IC50 was greater than 5 µM.

For `O=C(NCc1nc(-c2c[nH]c3ncccc23)n[nH]1)c1ccccc1Cc1ccccc1`, the concentration for half-maximal inhibition (IC50) is greater than 5 µM.

`O=C(NCc1nc(-c2c[nH]c3ncccc23)n[nH]1)c1cc2ccccc2cc1O` gave an IC50 greater than 5 µM.

In turn, `CC(C)(C)C(=O)Oc1ccc(C(=O)NCc2nc(-c3ccncc3)n[nH]2)c(O)c1` showed an IC50 greater than 5 µM.

Compound `CC(C)(C)OC(=O)N1Cc2ccccc2CC1C(=O)NCc1nc(-c2ccncc2)n[nH]1` (centres undefined) yielded a concentration for half-maximal inhibition (IC50) greater than 5 µM.

Regarding `CC(=O)c1ccc(C(=O)NCc2nc(-c3ccncc3)n[nH]2)cc1`, the IC50 is no more than 5 µM.

With `CC(C(=O)NCc1nc(-c2c[nH]c3ncccc23)n[nH]1)c1ccc(O)cc1` (centres undefined), the IC50 is greater than 5 µM.

`O=C(NCc1nc(-c2ccncc2)n[nH]1)c1c(F)c(F)c(F)c(F)c1F` had a 50% inhibitory concentration (IC50) greater than 5 µM.

`O=C(CCc1ccccc1Br)NCc1nc(-c2ccncc2)n[nH]1` gave an IC50 greater than 5 µM.

The compound `COc1ccc(C(=O)NCc2nc(-c3ccncc3)n[nH]2)cc1` registered a 50% inhibitory concentration (IC50) of no more than 5 µM.

Take `CS(=O)(=O)Nc1ccc(C(=O)NCc2nc(-c3ccncc3)n[nH]2)cc1`: the IC50 is greater than 5 µM.

For `O=C(NCc1nc(-c2ccncc2)c[nH]1)c1ccc(O)cc1O`, the concentration for half-maximal inhibition (IC50) was no more than 5 µM.

For the compound `O=C(NCc1nc(-c2c[nH]c3ncccc23)n[nH]1)c1cccnc1`, the IC50 was greater than 5 µM.

For the compound `CC(C)c1cc(C(=O)NCc2nc(-c3ccncc3)n[nH]2)c(O)c(C(C)C)c1`, the half-maximal inhibitory concentration (IC50) was greater than 5 µM.

For the compound `O=C(NCc1nc(-c2ccncc2)n[nH]1)c1cc(F)c(F)c(O)c1F`, the IC50 is greater than 5 µM.

With `O=C(C=Cc1ccccc1)NCc1nc(-c2ccncc2)n[nH]1`, the IC50 was greater than 5 µM.

Regarding `COc1ccc(Cl)cc1C(=O)NCc1nc(-c2ccncc2)n[nH]1`, the half-inhibitory concentration (IC50) is greater than 5 µM.

On to `O=C(NCc1nc(-c2c[nH]c3ncccc23)n[nH]1)c1cc(Br)ccc1Cl`, for which the half-maximal inhibitory concentration (IC50) was greater than 5 µM.

In turn, `O=C(NCc1nc(-c2ccncc2)n[nH]1)c1ccccc1OCc1ccccc1` yielded an IC50 greater than 5 µM.

As for `CC(C)(C)OC(=O)NC[C@H](NC(=O)c1ccc(O)cc1O)c1nc(-c2ccncc2)n[nH]1`, the IC50 was no more than 5 µM.

`Cc1c(C(=O)NCc2nc(-c3ccncc3)n[nH]2)cccc1[N+](=O)[O-]` had an IC50 greater than 5 µM.

`COc1ccccc1C=CC(=O)NCc1nc(-c2c[nH]c3ncccc23)n[nH]1`: the half-inhibitory concentration (IC50) is greater than 5 µM.

In turn, `O=C(NCc1nc(-c2c[nH]c3ncccc23)n[nH]1)c1cc(Cl)c(O)c(Cl)c1` displayed a concentration for half-maximal inhibition (IC50) greater than 5 µM.

For `COc1ccc(C(=O)NCc2nc(-c3c[nH]c4ncccc34)n[nH]2)cc1`, the IC50 is greater than 5 µM.

The compound `CC(C)(C)OC(=O)NC1CCN(C(=O)Cc2nc(-c3ccncc3)n[nH]2)C1` (centres undefined) yielded an IC50 greater than 5 µM.

Take `O=C(NCc1nc(-c2ccncc2)n[nH]1)c1cccc([N+](=O)[O-])c1`: the IC50 was greater than 5 µM.

The compound `Cc1cc(C(=O)NCc2nc(-c3ccncc3)n[nH]2)cc(Cl)n1` yielded an IC50 greater than 5 µM.

`COc1cc(Cl)ccc1C(=O)NCc1nc(-c2c[nH]c3ncccc23)n[nH]1` returned a 50% inhibitory concentration (IC50) greater than 5 µM.

`O=C(Cc1ccc(C(F)(F)F)cc1)NCc1nc(-c2ccncc2)n[nH]1` showed an IC50 greater than 5 µM.

Consider `O=C(NCc1nc(-c2ccncc2)n[nH]1)c1cc(Cl)ccc1Cl`, for which the IC50 was greater than 5 µM.

In turn, `Oc1ccc(C(O)CCc2nc(-c3ccncc3)n[nH]2)cc1` (centres undefined) displayed a half-maximal inhibitory concentration (IC50) greater than 5 µM.

`CCC(C(=O)NCc1nc(-c2ccncc2)n[nH]1)c1ccncc1` (centres undefined) returned an IC50 greater than 5 µM.

With `CCCCCCCC(=O)NCc1nc(-c2ccncc2)n[nH]1`, the IC50 was greater than 5 µM.

With `O=C(NCc1nc(-c2ccncc2)n[nH]1)c1c(Cl)cc(Cl)cc1Cl`, the IC50 was greater than 5 µM.

As for `COc1cc(OC)cc(C(=O)NCc2nc(-c3ccncc3)n[nH]2)c1`, the IC50 was greater than 5 µM.

For `Cc1c(C(=O)NCc2nc(-c3ccncc3)n[nH]2)oc2ccccc12`, the IC50 was greater than 5 µM.

Consider `CCN(CC)c1ccc(C(=O)NCc2nc(-c3ccncc3)n[nH]2)cc1`, for which the IC50 was greater than 5 µM.

For the compound `O=C(NCc1nc(-c2c[nH]c3ncccc23)n[nH]1)C1CCCO1` (centres undefined), the 50% inhibitory concentration (IC50) is greater than 5 µM.

In the case of `CC(C)C(NC(=O)OC(C)(C)C)C(=O)NCc1nc(-c2c[nH]c3ncccc23)n[nH]1` (centres undefined), the IC50 is greater than 5 µM.

Consider `COc1ccc(C(=O)NCc2nc(-c3c[nH]c4ncccc34)n[nH]2)c(OC)c1OC`, for which the IC50 is greater than 5 µM.

`O=C(NCc1c[nH]c(-c2ccncc2)n1)c1cccs1` came in with an IC50 greater than 5 µM.

Consider `O=C(NCc1nc(-c2ccncc2)n[nH]1)c1ccccc1O`, for which the IC50 was no more than 5 µM.

Compound `O=C(NCc1nc(-c2ccncc2)n[nH]1)c1cc(Cl)c(O)c(Cl)c1` came in with an IC50 greater than 5 µM.

`O=C(NCc1nc(-c2c[nH]c3ncccc23)n[nH]1)c1cccc(O)c1` showed a half-maximal inhibitory concentration (IC50) greater than 5 µM.

`CC(C)(C)OC(=O)NC(Cc1ccccc1)C(=O)NCc1nc(-c2c[nH]c3ncccc23)n[nH]1` (centres undefined) had an IC50 greater than 5 µM.

Compound `O=C(NCc1nc(-c2c[nH]c3ncccc23)n[nH]1)c1cccc(Cl)c1[N+](=O)[O-]` displayed a concentration for half-maximal inhibition (IC50) greater than 5 µM.

`O=C(NCc1nc(-c2ccncc2)n[nH]1)c1cc2ccccc2o1` displayed an IC50 greater than 5 µM.

For the compound `CC(C)Cc1ccc(C(C)C(=O)NCc2nc(-c3ccncc3)n[nH]2)cc1` (centres undefined), the 50% inhibitory concentration (IC50) was greater than 5 µM.

Compound `CC(C)C(=O)Oc1ccc(C(=O)NCc2nc(-c3ccncc3)n[nH]2)c(O)c1` registered an IC50 of no more than 5 µM.

Regarding `O=C(NCc1nc(-c2ccncc2)n[nH]1)c1cc(Br)ccc1Cl`, the 50% inhibitory concentration (IC50) is greater than 5 µM.

Values taken from the Kinase Knowledgebase extract (Sharma et al. 2016).
